Experimental data from ChEMBL document CHEMBL1201862, “PubChem BioAssay data set” (2004).
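Five compound concentrations were applied to cells in 96-well plates for 48 hours; endpoints were derived by simple linear interpolation of the resulting dose-response curve. GI50 marks 50% less growth.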 Activity calls are given as the source filed them. Cut-off read from the data, not from the text of the source: active = GI50 up to about 1.1 µM and inactive = higher.

Experiments:
Test in all cases: NCI-60 cell line screen, 48 h
786-0 = system: 786-0
A498 = system: A498
A549 = system: A549
ACHN = system: ACHN
BT-549 = system: BT-549
CAKI-1 = system: CAKI-1
CCRF-CEM = system: CCRF-CEM
COLO 205 = system: COLO 205
DU-145 = system: DU-145
EKVX = system: EKVX
HCC 2998 = system: HCC 2998
HCT-116 = system: HCT-116
HCT-15 = system: HCT-15
HL-60 = system: HL-60
HOP-62 = system: HOP-62
HOP-92 = system: HOP-92
HT-29 = system: HT-29
Hs-578T = system: Hs-578T
IGROV-1 = system: IGROV-1
K562 = system: K562
KM12 = system: KM12
LOX IMVI = system: LOX IMVI
M14 = system: M14
MCF7 = system: MCF7
MDA-MB-231 = system: MDA-MB-231
MDA-MB-435 = system: MDA-MB-435
MOLT-4 = system: MOLT-4
Malme-3M = system: Malme-3M
NCI-H226 = system: NCI-H226
NCI-H23 = system: NCI-H23
NCI-H460 = system: NCI-H460
NCI/ADR-RES = system: NCI/ADR-RES
OVCAR-3 = system: OVCAR-3
OVCAR-4 = system: OVCAR-4
OVCAR-5 = system: OVCAR-5
OVCAR-8 = system: OVCAR-8
PC-3 = system: PC-3
RPMI-8226 = system: RPMI-8226
RXF 393 = system: RXF 393
SF-268 = system: SF-268
SF-295 = system: SF-295
SF-539 = system: SF-539
SK-MEL-28 = system: SK-MEL-28
SK-MEL-2 = system: SK-MEL-2
SK-MEL-5 = system: SK-MEL-5
SK-OV-3 = system: SK-OV-3
SNB-19 = system: SNB-19
SNB-75 = system: SNB-75
SR = system: SR
SW-620 = system: SW-620
T47D = system: T47D
TK-10 = system: TK-10
U-251 = system: U-251
UACC-257 = system: UACC-257
UACC-62 = system: UACC-62
UO-31 = system: UO-31

## COC(=O)c1nc2c(C)c(O)c(O)c([C@H](C)CCC=C(C)C)c2o1
786-0
  GI50: 18.6 µM (inactive)
A498
  GI50: 21.7 µM (inactive)
A549
  GI50: 27.9 µM (inactive)
ACHN
  GI50: 22.6 µM (inactive)
BT-549
  GI50: 37.6 µM (inactive)
CAKI-1
  GI50: 23.8 µM (inactive)
CCRF-CEM
  GI50: 2.64 µM (inactive)
COLO 205
  GI50: 16.2 µM (inactive)
DU-145
  GI50: 65.5 µM (inactive)
EKVX
  GI50: 29.7 µM (inactive)
HCC 2998
  GI50: 30.1 µM (inactive)
HCT-116
  GI50: 8.34 µM (inactive)
HCT-15
  GI50: 14 µM
HL-60
  GI50: 16.7 µM (inactive)
HOP-62
  GI50: 16.5 µM (inactive)
HOP-92
  GI50: 26.5 µM (inactive)
HT-29
  GI50: 19.5 µM (inactive)
Hs-578T
  GI50: 30.5 µM (inactive)
IGROV-1
  GI50: 20.9 µM (inactive)
K562
  GI50: 50.6 µM (inactive)
KM12
  GI50: 23.3 µM (inactive)
LOX IMVI
  GI50: 43.2 µM (inactive)
M14
  GI50: 37.3 µM (inactive)
MCF7
  GI50: 36.3 µM (inactive)
MDA-MB-231
  GI50: 45.1 µM (inactive)
MDA-MB-435
  GI50: 26.8 µM (inactive)
MOLT-4
  GI50: 24.9 µM (inactive)
Malme-3M
  GI50: 26.7 µM (inactive)
NCI-H226
  GI50: 17.9 µM (inactive)
NCI-H23
  GI50: 28.1 µM (inactive)
NCI-H460
  GI50: 46.5 µM (inactive)
NCI/ADR-RES
  GI50: 25.2 µM (inactive)
OVCAR-3
  GI50: 26.5 µM (inactive)
OVCAR-4
  GI50: 30.1 µM (inactive)
OVCAR-5
  GI50: 58.6 µM (inactive)
OVCAR-8
  GI50: 38.5 µM (inactive)
PC-3
  GI50: 26.6 µM (inactive)
RPMI-8226
  GI50: 13 µM (inactive)
RXF 393
  GI50: 21.4 µM (inactive)
SF-268
  GI50: 33.3 µM (inactive)
SF-295
  GI50: 25 µM (inactive)
SF-539
  GI50: 20 µM (inactive)
SK-MEL-28
  GI50: 32.7 µM (inactive)
SK-MEL-2
  GI50: 20.5 µM (inactive)
SK-MEL-5
  GI50: 13 µM (inactive)
SK-OV-3
  GI50: 40.6 µM (inactive)
SNB-19
  GI50: 38.5 µM (inactive)
SNB-75
  GI50: 18.2 µM (inactive)
SR
  GI50: 7 µM (inactive)
SW-620
  GI50: 39.5 µM (inactive)
T47D
  GI50: 39.8 µM (inactive)
TK-10
  GI50: 39 µM (inactive)
U-251
  GI50: 28.5 µM (inactive)
UACC-257
  GI50: 28.4 µM (inactive)
UACC-62
  GI50: > 10 µM (inactive)
UO-31
  GI50: 17.7 µM (inactive)
